In ChEMBL document CHEMBL1649429, “Novel plasmid-encoded ceftazidime-hydrolyzing CTX-M-53 extended-spectrum beta-lactamase from Salmonella enterica serotypes Westhampton and Senftenberg” (Antimicrob Agents Chemother, 2009) one finds MIC data, which are given here for 11 compounds.

For test [1], the system named is Escherichia coli. As to the kind of experiment: Antimicrobial activity against Escherichia coli DH10B harboring natural plasmid pWES-1 carrying CTX-M-53 gene by Etest in presence of clavulanic acid. The class given is functional. To be noted: K-12 DH10B.
Test [2] concerns Escherichia coli. Description: Antimicrobial activity against Escherichia coli DH5[alpha] harboring recombinant plasmid carrying CTX-M-53 gene by Etest in presence of clavulanic acid. The class given is functional.
For test [3], the system named is Escherichia coli. As to the kind of experiment: Antimicrobial activity against Escherichia coli DH5[alpha] harboring phagemid pBK-CMV by Etest in presence of clavulanic acid. The class given is functional.
A short description of test [4]: Antimicrobial activity against Salmonella enterica serotype Westhampton isolate 04CEB8273SAL CTX-M-53 gene by Etest in presence of clavulanic acid. Format: functional, Salmonella enterica subsp. enterica serovar Westhampton.
In test [5] the test system is Escherichia coli. Description: Antimicrobial activity against Escherichia coli ATCC 25922 by Etest in presence of clavulanic acid. Format: functional.
Test [6] deals with Escherichia coli. Description: Antimicrobial activity against Escherichia coli DH10B by Etest in presence of clavulanic acid. Format: functional. To be noted: K-12 DH10B.
Test [7] concerns Escherichia coli. Description: Antimicrobial activity against Escherichia coli ATCC 25922 by disk diffusion method. The class given is functional. For orientation: Agar diffusion results depend on both activity and mobility in agar.
Test [8] has as its system Escherichia coli. As to the kind of experiment: Antimicrobial activity against Escherichia coli ATCC 25922 […] in presence of clavulanic acid. Format: functional.
Test [9] relates to Escherichia coli. Description: Antimicrobial activity against Escherichia coli DH5[alpha] harboring recombinant plasmid carrying CTX-M-53 gene […] in presence of clavulanic acid. The class given is functional.
Test [10] can be described thus: Antimicrobial activity against Salmonella enterica serotype Westhampton isolate 04CEB8273SAL expressing CTX-M-53 gene […]. The class given is functional, Salmonella enterica subsp. enterica serovar Westhampton.
The subject of test [11] is Escherichia coli. As to the kind of experiment: Antimicrobial activity against Escherichia coli DH10B […] in presence of clavulanic acid. The note with it: K-12 DH10B. The class given is functional.
Test [12] concerns Escherichia coli. As to the kind of experiment: Antimicrobial activity against Escherichia coli DH10B by disk diffusion method. The class given is functional. The note with it: K-12 DH10B.
For test [13], the system named is Escherichia coli. Description: Antimicrobial activity against Escherichia coli DH5[alpha] harboring recombinant plasmid carrying CTX-M-53 gene by disk diffusion method. The class given is functional.
For test [14], the system named is Escherichia coli. As to the kind of experiment: Antimicrobial activity against Escherichia coli DH5[alpha] harboring phagemid pBK-CMV […] in presence of clavulanic acid. The class given is functional.
Test [15] relates to Escherichia coli. Description: Antimicrobial activity against Escherichia coli DH10B harboring natural plasmid pWES-1 carrying CTX-M-53 gene […] in presence of clavulanic acid. Format: functional. To be noted: K-12 DH10B.
Test [16] is described as follows: Antimicrobial activity against Salmonella enterica serotype Westhampton isolate 04CEB8273SAL expressing CTX-M-53 gene […] in presence of clavulanic acid. Format: functional, Salmonella enterica subsp. enterica serovar Westhampton.
In test [17] the test system is Escherichia coli. Description: Antimicrobial activity against Escherichia coli DH10B harboring natural plasmid pWES-1 carrying CTX-M-53 gene […]. The class given is functional. The note with it: K-12 DH10B.
Test [18] relates to Escherichia coli. As to the kind of experiment: Antimicrobial activity against Escherichia coli DH5[alpha] harboring phagemid pBK-CMV […]. Format: functional.
In test [19] the test system is Escherichia coli. Description: Antimicrobial activity against Escherichia coli DH10B harboring natural plasmid pWES-1 carrying CTX-M-53 gene […] in presence of Tazobactam. Format: functional. To be noted: K-12 DH10B.
The subject of test [20] is Escherichia coli. Description: Antimicrobial activity against Escherichia coli ATCC 25922 […] in presence of Tazobactam. The class given is functional.
The subject of test [21] is Escherichia coli. As to the kind of experiment: Antimicrobial activity against Escherichia coli DH5[alpha] harboring phagemid pBK-CMV […] in presence of Tazobactam. Format: functional.
Test [22] is described as follows: Antimicrobial activity against Salmonella enterica serotype Westhampton isolate 04CEB8273SAL expressing CTX-M-53 gene […] in presence of Tazobactam. Format: functional, Salmonella enterica subsp. enterica serovar Westhampton.
In test [23] the test system is Escherichia coli. Description: Antimicrobial activity against Escherichia coli DH10B […] in presence of Tazobactam. The note with it: K-12 DH10B. Format: functional.
The subject of test [24] is Escherichia coli. As to the kind of experiment: Antimicrobial activity against Escherichia coli DH5[alpha] harboring recombinant plasmid carrying CTX-M-53 gene […] in presence of Tazobactam. Format: functional.
Test [25] can be described thus: Antimicrobial activity against Salmonella enterica serotype Westhampton isolate 04CEB8273SAL expressing CTX-M-53 gene by Etest. Format: functional, Salmonella enterica subsp. enterica serovar Westhampton.
The subject of test [26] is Escherichia coli. Description: Antimicrobial activity against Escherichia coli ATCC 25922 by Etest. Format: functional.
Test [27] has as its system Escherichia coli. Description: Antimicrobial activity against Escherichia coli DH5[alpha] harboring phagemid pBK-CMV by Etest. Format: functional.
The test system of test [28] is Escherichia coli. Description: Antimicrobial activity against Escherichia coli DH10B by Etest. The class given is functional. The note with it: K-12 DH10B.

Converted amounts (≈) assume the structure as drawn.

Take `CO/N=C(\C(=O)N[C@@H]1C(=O)N2C(C(=O)O)=C(COC(C)=O)CS[C@H]12)c1csc(N)n1` [CEFOTAXIME]: the MIC in the test with Escherichia coli [1] is 0.125 µg/mL; in the test on Escherichia coli [2] it was 0.06 µg/mL; with Escherichia coli [3], less than 0.06 µg/mL; in test [4] it was 1 µg/mL; with Escherichia coli [5], 0.06 µg/mL; in the test on Escherichia coli [6] it was 0.125 µg/mL.

In the case of `CC1(C)S[C@@H]2[C@H](NC(=O)[C@H](C(=O)O)c3ccsc3)C(=O)N2[C@H]1C(=O)O` [TICARCILLIN], the MIC in the test on Escherichia coli [7] is 8 µg/mL (≈ 20.8 µM); with Escherichia coli [8] it was 4 µg/mL; with Escherichia coli [9], 32 µg/mL; in test [10] it was greater than 256 µg/mL; in the test with Escherichia coli [11], 2 µg/mL; against Escherichia coli [12], 8 µg/mL (≈ 20.8 µM). Also, the MIC in the test with Escherichia coli [13] was greater than 256 µg/mL; with Escherichia coli [14] it was 2 µg/mL; with Escherichia coli [15], 32 µg/mL; in [16] it was 128 µg/mL; with Escherichia coli [17], greater than 256 µg/mL; against Escherichia coli [18], 2 µg/mL (≈ 5.2 µM).

`CC1(C)S[C@@H]2[C@H](NC(=O)[C@H](N)c3ccc(O)cc3)C(=O)N2[C@H]1C(=O)O` [AMOXICILLIN]: the MIC came to 8 µg/mL in the test on Escherichia coli [8]; 8 µg/mL with Escherichia coli [9]; 8 µg/mL in the test with Escherichia coli [11]; 4 µg/mL in the test with Escherichia coli [14]; 8 µg/mL in the test with Escherichia coli [15]; 8 µg/mL in [16].

For the compound `CCN1CCN(C(=O)N[C@@H](C(=O)N[C@@H]2C(=O)N3[C@@H]2SC(C)(C)[C@@H]3C(=O)O)c2ccccc2)C(=O)C1=O` [PIPERACILLIN], the MIC is 2 µg/mL (≈ 3.86 µM) with Escherichia coli [7]; greater than 256 µg/mL in test [10]; 2 µg/mL (≈ 3.86 µM) against Escherichia coli [12]; 4 µg/mL with Escherichia coli [19]; greater than 256 µg/mL in the test with Escherichia coli [13]; greater than 256 µg/mL in the test on Escherichia coli [17]. Also, the MIC amounted to 2 µg/mL in the test on Escherichia coli [20]; 1 µg/mL in the test with Escherichia coli [21]; 16 µg/mL in [22]; 4 µg/mL in the test with Escherichia coli [23]; 1 µg/mL (≈ 1.93 µM) in the test with Escherichia coli [18]; 2 µg/mL with Escherichia coli [24].

`CO[C@@]1(NC(=O)Cc2cccs2)C(=O)N2C(C(=O)O)=C(COC(N)=O)CS[C@@H]21` [CEFOXITIN]: the MIC with Escherichia coli [7] amounted to 2 µg/mL (≈ 4.68 µM); in [10], 8 µg/mL (≈ 18.7 µM); against Escherichia coli [12], 4 µg/mL (≈ 9.36 µM); in the test on Escherichia coli [13], 4 µg/mL; with Escherichia coli [17], 4 µg/mL (≈ 9.36 µM); with Escherichia coli [18], 2 µg/mL (≈ 4.68 µM).

As for `C[C@H]1[C@H](NC(=O)/C(=N\OC(C)(C)C(=O)O)c2csc(N)n2)C(=O)N1S(=O)(=O)O` [AZTREONAM], the MIC was 0.06 µg/mL (≈ 0.138 µM) with Escherichia coli [7]; greater than 256 µg/mL in test [10]; 0.25 µg/mL (≈ 0.574 µM) against Escherichia coli [12]; 128 µg/mL in the test on Escherichia coli [13]; 128 µg/mL (≈ 294 µM) in the test with Escherichia coli [17]; less than 0.06 µg/mL in the test on Escherichia coli [18].

On to `C[C@@H](O)[C@H]1C(=O)N2C(C(=O)O)=C(SCCNC=N)C[C@H]12` [IMIPENEM ANHYDROUS], for which, in test [10], the MIC was determined as 0.5 µg/mL (≈ 1.67 µM).

On to `CC1(C)S[C@@H]2[C@H](NC(=O)[C@H](N)c3ccccc3)C(=O)N2[C@H]1C(=O)O` [AMPICILLIN], for which the MIC in the test on Escherichia coli [7] is 4 µg/mL (≈ 11.4 µM); in test [10], greater than 256 µg/mL; against Escherichia coli [12] it was 4 µg/mL (≈ 11.4 µM); in the test on Escherichia coli [13] it was greater than 256 µg/mL; against Escherichia coli [17], greater than 256 µg/mL.

For `CO/N=C(\C(=O)N[C@@H]1C(=O)N2C(C(=O)[O-])=C(C[N+]3(C)CCCC3)CS[C@H]12)c1csc(N)n1`, the MIC in test [10] is greater than 32 µg/mL; in the test on Escherichia coli [12] it was 0.125 µg/mL (≈ 0.26 µM); with Escherichia coli [13] it was greater than 32 µg/mL; with Escherichia coli [17], 32 µg/mL (≈ 66.6 µM).

As to `CC(C)(O/N=C(\C(=O)N[C@@H]1C(=O)N2C(C(=O)[O-])=C(C[n+]3ccccc3)CS[C@H]12)c1csc(N)n1)C(=O)O` [CEFTAZIDIME], the MIC in the test with Escherichia coli [7] is 0.25 µg/mL (≈ 0.457 µM); in the test with Escherichia coli [8] it was 0.125 µg/mL; in the test with Escherichia coli [9], 0.125 µg/mL; in test [10] it was greater than 256 µg/mL; with Escherichia coli [11], 0.5 µg/mL; with Escherichia coli [12] it was 0.5 µg/mL (≈ 0.915 µM). The MIC in the test on Escherichia coli [13] stood at 64 µg/mL; with Escherichia coli [14], 0.125 µg/mL; in the test on Escherichia coli [15] it was 0.5 µg/mL; in test [16], 2 µg/mL; against Escherichia coli [17] it was 64 µg/mL (≈ 117 µM); against Escherichia coli [18] it was 0.125 µg/mL (≈ 0.229 µM).

For the compound `CO/N=C(\C(=O)N[C@@H]1C(=O)N2C(C(=O)O)=C(CSc3nc(=O)c(O)nn3C)CS[C@H]12)c1csc(N)n1` [CEFTRIAXONE], the MIC in test [25] was greater than 256 µg/mL; in the test with Escherichia coli [26], 0.06 µg/mL (≈ 0.108 µM); with Escherichia coli [27], less than 0.06 µg/mL; against Escherichia coli [28] it was 0.125 µg/mL (≈ 0.225 µM).
